We go through 35 compounds from patent US9815846B2 (Merck Sharp & Dohme Corp., priority 2014, dated 2017).

The target of the experiment is human TrkA receptor (Homo sapiens (Human), UniProt P04629). Kind of experiment: DiscoverX PathHunter TrkA functional assay (NGF-stimulated U2OS cells). Particulars: U2OS cells expressing human TrkA-PK, Shc1-EA and p75NTR; compound 1 h, then NGF at ~80% of maximal response for 3 h; luminescence. The experiment is classed as cell-based.

What is called IC50 is the concentration needed to halve the response being measured.

Sequence of human TrkA receptor (P04629 33-796): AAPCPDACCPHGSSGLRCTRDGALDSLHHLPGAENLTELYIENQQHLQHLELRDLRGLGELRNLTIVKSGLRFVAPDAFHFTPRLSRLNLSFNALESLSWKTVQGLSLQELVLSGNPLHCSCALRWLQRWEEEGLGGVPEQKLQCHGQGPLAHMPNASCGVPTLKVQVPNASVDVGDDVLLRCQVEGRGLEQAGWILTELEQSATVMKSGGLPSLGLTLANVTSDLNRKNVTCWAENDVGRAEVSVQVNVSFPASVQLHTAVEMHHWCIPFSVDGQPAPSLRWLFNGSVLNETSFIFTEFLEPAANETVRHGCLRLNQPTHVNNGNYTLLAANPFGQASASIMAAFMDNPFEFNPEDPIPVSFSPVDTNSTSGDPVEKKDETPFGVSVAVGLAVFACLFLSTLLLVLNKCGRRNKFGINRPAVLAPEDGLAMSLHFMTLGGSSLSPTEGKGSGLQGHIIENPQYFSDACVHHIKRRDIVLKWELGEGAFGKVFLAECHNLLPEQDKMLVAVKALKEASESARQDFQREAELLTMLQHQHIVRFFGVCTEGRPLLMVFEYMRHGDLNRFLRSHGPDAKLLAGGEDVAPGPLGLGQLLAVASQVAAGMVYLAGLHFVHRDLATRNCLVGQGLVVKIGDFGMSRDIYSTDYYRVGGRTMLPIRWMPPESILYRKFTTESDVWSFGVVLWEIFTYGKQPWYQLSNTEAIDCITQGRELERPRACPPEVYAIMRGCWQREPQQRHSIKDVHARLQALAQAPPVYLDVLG

For the compound `Cc1cc(-c2nc(C)ncc2NC(=O)c2ccc(C(F)(F)F)c(-c3nc(C)cs3)c2)[nH]n1` [Example 18, N-[2-methyl-4-(3-methyl-1H-pyrazol-5-yl)pyrimidin-5-yl]-3-(4-methyl-1,3-thiazol-2-yl)-4-(trifluoromethyl)benzamide], half-maximal inhibition (IC50) required 330 nM.
In the case of `Cc1cnn(-c2ccncc2NC(=O)c2ccc(C(F)(F)F)c(-c3ccn(C)n3)c2)c1` [Example 19, 3-(1-methyl-1H-pyrazol-3-yl)-N-[4-(4-methyl-1H-pyrazol-1-yl)pyridin-3-yl]-4-(trifluoromethyl)benzamide], the IC50 amounted to 25 nM.
With `Cc1ncc(NC(=O)c2ccc(C(F)(F)F)c(-c3ncco3)c2)c(-c2ccccc2)n1` [Example 20, N-(2-methyl-4-phenylpyrimidin-5-yl)-3-(1,3-oxazol-2-yl)-4-(trifluoromethyl)benzamide] the figure was 15 nM; with `Cc1ncc(NC(=O)c2ccc(C(F)(F)F)c(-c3cc[nH]n3)c2)c(-c2ccccc2)n1` [Example 21, N-(2-methyl-4-phenylpyrimidin-5-yl)-3-(1H-pyrazol-3-yl)-4-(trifluoromethyl)benzamide], 35 nM.
Compound `Cn1ccc(-c2cc(C(=O)Nc3ncccc3-c3ccccc3)ccc2C(F)(F)F)n1` [Example 22, 3-(1-methyl-1H-pyrazol-3-yl)-N-(3-phenylpyridin-2-yl)-4-(trifluoromethyl)benzamide] gave an IC50 of 64 nM.
Turning to `Cc1ncc(NC(=O)c2cc(-c3ccn(C)n3)c(C(F)(F)F)cc2Cl)c(-c2ccccc2)n1` [Example 23, 2-chloro-N-(2-methyl-4-phenylpyrimidin-5-yl)-5-(1-methyl-1H-pyrazol-3-yl)-4-(trifluoromethyl)benzamide], the half-inhibitory concentration (IC50) was 1.1 nM.
Turning to `Cn1ccc(-c2cc(C(=O)Nc3nccnc3-c3ccccc3)ccc2C(F)(F)F)n1` [Example 25, 3-(1-methyl-1H-pyrazol-3-yl)-N-(3-phenylpyrazin-2-yl)-4-(trifluoromethyl)benzamide], the 50% inhibitory concentration (IC50) was 83 nM.
In turn, `Cc1nc(C)c(NC(=O)c2ccc(C(F)(F)F)c(-c3ccn(C)n3)c2)c(-c2ccccc2)n1` [Example 26, N-(2,4-dimethyl-6-phenylpyrimidin-5-yl)-3-(1-methyl-1H-pyrazol-3-yl)-4-(trifluoromethyl)benzamide] returned an IC50 of 210 nM.
The result for `Cc1ncc(NC(=O)c2cc(-c3ncccn3)c(C(F)(F)F)cc2F)c(-c2ccccc2)n1` [Example 28, 2-fluoro-N-(2-methyl-4-phenylpyrimidin-5-yl)-5-pyrimidin-2-yl-4-(trifluoromethyl)benzamide] reads 9.6 nM; that for `Cc1coc(-c2cc(C(=O)Nc3cnc(C)nc3-c3ccccc3)ccc2C(F)(F)F)n1` [Example 29, 3-(4-methyl-1,3-oxazol-2-yl)-N-(2-methyl-4-phenylpyrimidin-5-yl)-4-(trifluoromethyl)benzamide], 4 nM.
With `Cc1noc(-c2cc(C(=O)Nc3cnc(C)nc3-c3ccccc3)ccc2C(F)(F)F)n1` [Example 30, 3-(3-methyl-1,2,4-oxadiazol-5-yl)-N-(2-methyl-4-phenylpyrimidin-5-yl)-4-(trifluoromethyl)benzamide] the figure was 130 nM; with `Cc1ncc(NC(=O)c2ccc(C(F)(F)F)c(-c3ccn(C)n3)c2)c(-c2ccc(F)cc2)n1` [Example 31, N-[4-(4-fluorophenyl)-2-methylpyrimidin-5-yl]-3-(1-methyl-1H-pyrazol-3-yl)-4-(trifluoromethyl)benzamide], 5.5 nM.
With `Cc1cccc(-c2nc(C)ncc2NC(=O)c2ccc(C(F)(F)F)c(-c3ccn(C)n3)c2)c1` [Example 32, N-[2-methyl-4-(3-methylphenyl)pyrimidin-5-yl]-3-(1-methyl-1H-pyrazol-3-yl)-4-(trifluoromethyl)benzamide] the figure was 8.3 nM.
`Cc1ncc(NC(=O)c2cc(C3CCC(C)O3)c(C(F)(F)F)cc2F)c(-c2ccccc2)n1` (centres unmarked) [Example 33, 2-fluoro-N-(2-methyl-4-phenylpyrimidin-5-yl)-5-(5-methyltetrahydrofuran-2-yl)-4-(trifluoromethyl)benzamide] returned a 50% inhibitory concentration (IC50) of 56 nM.
The result for `Cn1ccc(-c2cc(C(=O)Nc3cnc(CC#N)nc3-c3ccccc3)c(F)cc2C(F)(F)F)n1` [Example 34, N-(2-(cyanomethyl)-4-phenylpyrimidin-5-yl)-2-fluoro-5-(1-methyl-1H-pyrazol-3-yl)-4-(trifluoromethyl)benzamide] reads 0.69 nM; that for `Cn1ccc(-c2cc(C(=O)Nc3cnc(CO)nc3-c3ccccc3)ccc2C(F)(F)F)n1` [Example 35, N-(2-(Hydroxymethyl)-4-phenylpyrimidin-5-yl)-3-(1-methyl-1H-pyrazol-3-yl)-4-(trifluoromethyl)benzamide], 7.3 nM; that for `O=C(Nc1cnc(CO)nc1-c1ccccc1)c1ccc(C(F)(F)F)c(-c2cc[nH]n2)c1` [Example 36, N-(2-(hydroxymethyl)-4-phenylpyrimidin-5-yl)-3-(1H-pyrazol-3-yl)-4-(trifluoromethyl)benzamide], 24 nM.
With `Cn1ccc(-c2cc(C(=O)Nc3cnc(CCO)nc3-c3ccccc3)ccc2C(F)(F)F)n1` [Example 37, N-(2-(2-hydroxyethyl)-4-phenylpyrimidin-5-yl)-3-(1-methyl-1H-pyrazol-3-yl)-4-(trifluoromethyl)benzamide] the figure was 4 nM; with `Cn1ccc(-c2cc(C(=O)Nc3cnc(CCN4CCOCC4)nc3-c3ccccc3)ccc2C(F)(F)F)n1` [Example 38, 3-(1-methyl-1H-pyrazol-3-yl)-N-(2-(2-morpholinoethyl)-4-phenylpyrimidin-5-yl)-4-(trifluoromethyl)benzamide], 25 nM; with `O=C(Nc1cnc(CO)nc1-c1ccccc1)c1ccc(C(F)(F)F)c(-c2ncccn2)c1` [Example 39, N-(2-(Hydroxymethyl)-4-phenylpyrimidin-5-yl)-3-(pyrimidin-2-yl)-4-(trifluoromethyl)benzamide], 70 nM.
Regarding `O=C(Nc1cnc(CO)nc1-c1ccccc1)c1ccc(C(F)(F)F)c(-c2cc[nH]n2)c1` [Example 40, N-(2-(hydroxymethyl)-4-phenylpyrimidin-5-yl)-3-(1H-pyrazol-3-yl)-4-(trifluoromethyl)benzamide], the midpoint of inhibition, the IC50, lay at 12 nM.
For `Cn1ccc(-c2cc(C(=O)Nc3cnc(CNC(=O)OC(C)(C)C)nc3-c3ccccc3)ccc2C(F)(F)F)n1` [Example 41, t-Butyl ((5-(3-(1-methyl-1H-pyrazol-3-yl)-4-(trifluoromethyl)benzamido)-4-phenylpyrimidin-2-yl)methyl)carbamate], the midpoint of inhibition, the IC50, lay at 5 nM.
With `Cn1ccc(-c2cc(C(=O)Nc3cnc(CN)nc3-c3ccccc3)ccc2C(F)(F)F)n1` [Example 42, N-(2-(Aminomethyl)-4-phenylpyrimidin-5-yl)-3-(1-methyl-1H-pyrazol-3-yl)-4-(trifluoromethyl)benzamide] the figure was 21 nM.
With `NCc1ncc(NC(=O)c2ccc(C(F)(F)F)c(-c3ccn(C(F)F)n3)c2)c(-c2ccccc2)n1` [Example 43] the figure was 55 nM.
The result for `Cc1ncc(NC(=O)c2ccc(C(F)(F)F)c(-c3ccn(C)n3)c2)c(-c2cccc(CO)c2)n1` [Example 44, N-(4-(3-(Hydroxymethyl)phenyl)-2-methylpyrimidin-5-yl)-3-(1-methyl-1H-pyrazol-3-yl)-4-(trifluoromethyl)benzamide] reads 20 nM; that for `CNCc1ncc(NC(=O)c2ccc(C(F)(F)F)c(-c3ccn(C)n3)c2)c(-c2ccccc2)n1` [Example 45], 16 nM; that for `Cc1nc(CO)c(NC(=O)c2ccc(C(F)(F)F)c(-c3ccn(C)n3)c2)c(-c2ccccc2)n1` [Example 46, N-(4-(Hydroxymethyl)-2-methyl-6-phenylpyrimidin-5-yl)-3-(1-methyl-1H-pyrazol-3-yl)-4-(trifluoromethyl)benzamide], 24 nM.
As to `Cn1ccc(-c2cc(C(=O)Nc3ccc(C(C)(C)O)nc3-c3ccccc3)ccc2C(F)(F)F)n1` [Example 47, N-(6-(2-hydroxypropan-2-yl)-2-phenylpyridin-3-yl)-3-(1-methyl-1H-pyrazol-3-yl)-4-(trifluoromethyl)benzamide], the IC50 was determined as 1.3 nM.
`C[C@H](O)C(=O)NCc1ncc(NC(=O)c2cc(-c3ccn(C)n3)c(C(F)(F)F)cc2F)c(-c2ccccc2)n1` [Example 48] yielded an IC50 of 1.1 nM.
With `CC(=O)NCc1ncc(NC(=O)c2ccc(C(F)(F)F)c(-c3ccn(C)n3)c2)c(-c2ccccc2)n1` [Example 49, N-(2-(acetamidomethyl)-4-phenylpyrimidin-5-yl)-3-(1-methyl-1H-pyrazol-3-yl)-4-(trifluoromethyl)benzamide] the figure was 3.6 nM.
The result for `Cn1ccc(-c2cc(C(=O)Nc3cnc(CNC(=O)CO)nc3-c3ccccc3)ccc2C(F)(F)F)n1` [Example 50, N-(2-((2-hydroxyacetamido)methyl)-4-phenylpyrimidin-5-yl)-3-(1-methyl-1H-pyrazol-3-yl)-4-(trifluoromethyl)benzamide] reads 3.6 nM.
Turning to `Cn1ccc(-c2cc(C(=O)Nc3cnc(CNC(=O)C4CC4)nc3-c3ccccc3)ccc2C(F)(F)F)n1` [Example 51, N-(2-(cyclopropanecarboxamidomethyl)-4-phenylpyrimidin-5-yl)-3-(1-methyl-1H-pyrazol-3-yl)-4-(trifluoromethyl)benzamide], half-maximal inhibition (IC50) required 4.9 nM.
In turn, `Cn1ccc(-c2cc(C(=O)Nc3cnc(CNC(=O)CO)nc3-c3ccccc3)c(F)cc2C(F)(F)F)n1` [Example 52, 2-fluoro-N-(2-((2-hydroxyacetamido)methyl)-4-phenylpyrimidin-5-yl)-5-(1-methyl-1H-pyrazol-3-yl)-4-(trifluoromethyl)benzamide] came in with an IC50 of 1.6 nM.
The result for `Cn1ccc(-c2cc(C(=O)Nc3ccc(CNC(=O)CO)nc3-c3ccccc3)ccc2C(F)(F)F)n1` [Example 53, N-(6-((2-hydroxyacetamido)methyl)-2-phenylpyridin-3-yl)-3-(1-methyl-1H-pyrazol-3-yl)-4-(trifluoromethyl)benzamide] reads 5.7 nM; that for `CC(=O)NCc1ncc(NC(=O)c2cc(-c3cc[nH]n3)c(C(F)(F)F)cc2F)c(-c2ccccc2)n1` [Example 54, N-(2-(acetamidomethyl)-4-phenylpyrimidin-5-yl)-2-fluoro-5-(1H-pyrazol-3-yl)-4-(trifluoromethyl)benzamide], 9.3 nM.
